# Measured values from publication PMC11392244, “Characterization of a unique catechol-O-methyltransferase as a molecular drug target in parasitic filarial nematodes” (PLOS Neglected Tropical Diseases, 2024).
# Values joined by “and” are separate entries in the source; they are usually repeats but may differ in a detail not shown here. Equal entries are not always repeated. Where two headings read alike, the source gives them in different places.
# Columns and labels:
# DiMT protein = type: biochemical, Dirofilaria immitis; details: for IC50: read-out: IC 50 (μM ± SEM)
# D. immitis microfilariae = experiment: In vitro efficacy against live D. immitis microfilariae (motility, completely immotile %); type: cell-based, Dirofilaria immitis; details: for effect on microfilariae: up to 120 h of culture; for Completely Immotile Microfilariae (%): single replicate
smiles,measurement,setting,value
COc1cc(C)c2c(c1C=O)Oc1c(c(C)c(O)c3c1C(O)OC3=O)OC2=O (centres unmarked) [NSC87511],IC50,DiMT protein,155 ± 2.2 µM
same,effect on microfilariae,D. immitis microfilariae,insignificant effect
O=c1c(O)cccc2cc(O)c(O)c(O)c12 [NSC35676],Mean Percent Inhibition (single experiments),DiMT protein; 15 µM,41.9 and 44.3 and 44.1
same,"Mean Percent Inhibition, Average",DiMT protein; 15 µM,43.4
same,Mean Percent Inhibition (single experiments),DiMT protein; 25 µM,45.9 and 51.6 and 47.0
same,"Mean Percent Inhibition, Average",DiMT protein; 25 µM,48.2
same,Mean Percent Inhibition (single experiments),DiMT protein; 50 µM,62.0 and 58.4 and 60.6
same,"Mean Percent Inhibition, Average",DiMT protein; 50 µM,60.4
same,Mean Percent Inhibition (single experiments),DiMT protein; 75 µM,63.8 and 67.9 and 65.4
same,"Mean Percent Inhibition, Average",DiMT protein; 75 µM,65.7
same,Mean Percent Inhibition (single experiments),DiMT protein; 100 µM,68.1 and 72.1 and 71.2
same,"Mean Percent Inhibition, Average",DiMT protein; 100 µM,70.5
same,IC50,DiMT protein,25.2 ± 1.4 µM
same,Mean completely Immotile (%),"D. immitis microfilariae; 25 µM, 0 h",0%
same,Completely Immotile Microfilariae (%),"D. immitis microfilariae; 25 µM, 0 h",0%
same,Mean completely Immotile (%),"D. immitis microfilariae; 25 µM, 24 h",1%
same,Completely Immotile Microfilariae (%),"D. immitis microfilariae; 25 µM, 24 h",0% and 1% and 2%
same,Mean completely Immotile (%),"D. immitis microfilariae; 25 µM, 48 h",3%
same,Completely Immotile Microfilariae (%),"D. immitis microfilariae; 25 µM, 48 h",2% and 3% and 4%
same,Mean completely Immotile (%),"D. immitis microfilariae; 25 µM, 72 h",4.33%
same,Completely Immotile Microfilariae (%),"D. immitis microfilariae; 25 µM, 72 h",4% and 3% and 6%
same,Mean completely Immotile (%),"D. immitis microfilariae; 25 µM, 96 h",5.67%
same,Completely Immotile Microfilariae (%),"D. immitis microfilariae; 25 µM, 96 h",5% and 4% and 8%
same,Mean completely Immotile (%),"D. immitis microfilariae; 25 µM, 120 h",9.33%
same,Completely Immotile Microfilariae (%),"D. immitis microfilariae; 25 µM, 120 h",7% and 6% and 15%
same,Mean completely Immotile (%),"D. immitis microfilariae; 75 µM, 0 h",0%
same,Completely Immotile Microfilariae (%),"D. immitis microfilariae; 75 µM, 0 h",0%
same,Mean completely Immotile (%),"D. immitis microfilariae; 75 µM, 24 h",2.33%
same,Completely Immotile Microfilariae (%),"D. immitis microfilariae; 75 µM, 24 h",1% (2×) and 5%
same,Mean completely Immotile (%),"D. immitis microfilariae; 75 µM, 48 h",4.33%
same,Completely Immotile Microfilariae (%),"D. immitis microfilariae; 75 µM, 48 h",4% and 3% and 6%
same,Mean completely Immotile (%),"D. immitis microfilariae; 75 µM, 72 h",9%
same,Completely Immotile Microfilariae (%),"D. immitis microfilariae; 75 µM, 72 h",10% and 8% and 9%
same,Mean completely Immotile (%),"D. immitis microfilariae; 75 µM, 96 h",12%
same,Completely Immotile Microfilariae (%),"D. immitis microfilariae; 75 µM, 96 h",12% and 11% and 13%
same,Mean completely Immotile (%),"D. immitis microfilariae; 75 µM, 120 h",15.67%
same,Completely Immotile Microfilariae (%),"D. immitis microfilariae; 75 µM, 120 h",15% and 13% and 19%
same,Mean completely Immotile (%),"D. immitis microfilariae; 125 µM, 0 h",0%
same,Completely Immotile Microfilariae (%),"D. immitis microfilariae; 125 µM, 0 h",0%
same,Mean completely Immotile (%),"D. immitis microfilariae; 125 µM, 24 h",4.33%
same,Completely Immotile Microfilariae (%),"D. immitis microfilariae; 125 µM, 24 h",3% and 4% and 6%
same,Mean completely Immotile (%),"D. immitis microfilariae; 125 µM, 48 h",6%
same,Completely Immotile Microfilariae (%),"D. immitis microfilariae; 125 µM, 48 h",5% and 4% and 9%
same,Mean completely Immotile (%),"D. immitis microfilariae; 125 µM, 72 h",12.33%
same,Completely Immotile Microfilariae (%),"D. immitis microfilariae; 125 µM, 72 h",12% and 10% and 15%
same,Mean completely Immotile (%),"D. immitis microfilariae; 125 µM, 96 h",20.33%
same,Completely Immotile Microfilariae (%),"D. immitis microfilariae; 125 µM, 96 h",16% and 15% and 30%
same,Mean completely Immotile (%),"D. immitis microfilariae; 125 µM, 120 h",18.67%
same,Completely Immotile Microfilariae (%),"D. immitis microfilariae; 125 µM, 120 h",19% and 15% and 22%
same,Mean completely Immotile (%),"D. immitis microfilariae; 200 µM, 0 h",0%
same,Completely Immotile Microfilariae (%),"D. immitis microfilariae; 200 µM, 0 h",0%
same,Mean completely Immotile (%),"D. immitis microfilariae; 200 µM, 24 h",5%
same,Completely Immotile Microfilariae (%),"D. immitis microfilariae; 200 µM, 24 h",5% and 4% and 6%
same,Mean completely Immotile (%),"D. immitis microfilariae; 200 µM, 48 h",7.33%
same,Completely Immotile Microfilariae (%),"D. immitis microfilariae; 200 µM, 48 h",5% and 6% and 11%
same,Mean completely Immotile (%),"D. immitis microfilariae; 200 µM, 72 h",13.33%
same,Completely Immotile Microfilariae (%),"D. immitis microfilariae; 200 µM, 72 h",15% and 13% and 12%
same,Mean completely Immotile (%),"D. immitis microfilariae; 200 µM, 96 h",18.67%
same,Completely Immotile Microfilariae (%),"D. immitis microfilariae; 200 µM, 96 h",20% and 19% and 17%
same,Mean completely Immotile (%),"D. immitis microfilariae; 200 µM, 120 h",23%
same,Completely Immotile Microfilariae (%),"D. immitis microfilariae; 200 µM, 120 h",23% and 22% and 24%
same,effect on microfilariae,D. immitis microfilariae,insignificant effect
